The target of test [1] is CVB3 3C^pro (Coxsackievirus B3, UniProt P03313). Briefly: FRET assay, inhibition of Coxsackievirus B3 3C protease. In kind it is biochemical. As for the experimental part: (§1) We had previously shown that enterovirus 3C proteases have a substrate-binding site featuring some similarities with coronavirus main proteases, although their S2 subsite tends to be more open. Leucine is the ideal P2-amino-acid residue in M^pro substrates, whereas most 3C^pros favor Phe in this position.
Sequence of CVB3 3C^pro (P03313 1541-1723): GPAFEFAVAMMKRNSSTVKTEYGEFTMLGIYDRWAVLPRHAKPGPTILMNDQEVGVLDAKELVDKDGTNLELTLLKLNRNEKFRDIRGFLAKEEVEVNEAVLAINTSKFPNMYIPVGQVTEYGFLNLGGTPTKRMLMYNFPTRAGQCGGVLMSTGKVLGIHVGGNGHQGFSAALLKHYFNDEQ
(§2) Assay samples contained 59 µL of reaction buffer (20 mM HEPES, 120 mM NaCl, 0.4 mM EDTA, 20% glycerol, 4 mM DTT (freshly added before the measurements), pH 7.0, 10 µL enzyme solution (final concentration of Coxsackievirus B3 3C^pro or enterovirus A71 3C^pro: 1.0 µM).
(§3) All reactions were monitored at 37 °C for 15 min. Measurements of enzymatic activity were performed in triplicate and the value was presented as mean ± standard deviation (SD). The initial velocity of the enzymatic reaction with compounds was calculated by linear regression for the first minute of the progression curve. […] V0 is the velocity obtained for the DMSO control (inhibitor concentration of 0 µM).
(§4) […] of inhibitors (dose-response-inhibition). The IC50 values were calculated by non-linear regression (Curve fit: Y: Bottom + (Top-Bottom)/(1 + 10^ ((X-lg IC50))) using GraphPad Prism 9.0.

Test [2] deals with EV-A71 3C^pro (Human enterovirus 71, UniProt Q66478). Briefly: FRET assay, inhibition of enterovirus A71 3C protease. In kind it is biochemical. As for the experimental part:
as §1, §2, §3, §4

The target of test [3] is HCoV-NL63 M^pro (Human coronavirus NL63, UniProt P0C6X5). Briefly: biochemical.
Sequence of HCoV-NL63 M^pro (P0C6X5 2940-3242): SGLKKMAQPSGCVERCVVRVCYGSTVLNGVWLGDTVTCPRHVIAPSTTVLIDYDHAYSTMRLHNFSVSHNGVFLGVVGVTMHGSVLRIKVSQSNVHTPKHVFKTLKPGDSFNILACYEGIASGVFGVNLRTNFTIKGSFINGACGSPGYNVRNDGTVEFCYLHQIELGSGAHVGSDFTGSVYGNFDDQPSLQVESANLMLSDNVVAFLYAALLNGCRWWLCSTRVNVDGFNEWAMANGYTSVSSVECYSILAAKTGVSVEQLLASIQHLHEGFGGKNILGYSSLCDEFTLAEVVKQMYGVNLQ
In test [4] the target is SARS-CoV-2 M^pro (Severe acute respiratory syndrome coronavirus 2, UniProt P0DTD1). Briefly: FRET assay, inhibition of recombinant SARS-CoV-2 Mpro (optimized conditions). In kind it is biochemical. The note with it: FRET substrate Dabcyl-KTSAVLQ↓SGFRKM-E(Edans)-NH2, 50 nM enzyme, pH 7.0, 37 °C, 10 min preincubation.
Test [5] addresses SARS-CoV M^pro (Severe acute respiratory syndrome coronavirus, UniProt P0C6X7). In kind it is biochemical.
[6] abbreviates: inhibitor concentration not given, data not shown.

We go through four compounds from article PMC9268446 (Molecules, 2022).

Sequence of EV-A71 3C^pro (Q66478 1549-1731): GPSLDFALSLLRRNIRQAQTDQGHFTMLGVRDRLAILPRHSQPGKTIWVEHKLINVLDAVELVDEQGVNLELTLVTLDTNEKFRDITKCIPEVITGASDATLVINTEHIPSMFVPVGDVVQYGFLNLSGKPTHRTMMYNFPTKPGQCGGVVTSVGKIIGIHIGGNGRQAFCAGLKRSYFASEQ

In the case of `CC(C)(C)NC(=O)NC(C(=O)N1CC2C(C1C(=O)NC(CC1CCNC1=O)C(=O)C(N)=O)C2(C)C)C(C)(C)C` [MG-78, (1R,2S,5S)-N-((S)-4-Amino-3,4-dioxo-1-((S)-2-oxopyrrolidin-3-yl)butan2-yl)-3-((S)-2-(3-tert-butylureido)-3,3-dimethylbutanoyl)-6,6-dimethyl-3-azabicylo[3.1.0]hexane-2-carboxamide], the IC50 (usually the point on the concentration scale where inhibition reaches its midpoint) in test [1] (10 µM FRET substrate Dabcyl-KEALFQ↓GPPQFE(-Edans)-NH2, 1.0 µM enzyme, 37 °C, read-out: IC50 against CVB3 3C^pro) was determined as 1.45 µM; in test [2] (10 µM FRET substrate Dabcyl-KEALFQ↓GPPQFE(-Edans)-NH2, 1.0 µM enzyme, 37 °C, read-out: IC50 against EV-A71 3C^pro) it was 6.7 µM; in test [3], 0.33 µM. In addition, the “Factor by which IC50 versus HCoV-NL63 M^pro is larger than that for SARS-CoV-2 M^pro” value in test [3] stood at 25.
Regarding `CNC(=O)C(=O)[C@H](C[C@@H]1CCNC1=O)NC(=O)[C@@H]1[C@@H]2[C@H](CN1C(=O)[C@@H](NC(=O)NC(C)(C)C)C(C)(C)C)C2(C)C` [MG-131, (1R,2S,5S)-3-((S)-2-(3-tert-Butylureido)-3,3-dimethylbutanoyl) -6,6-dimethyl-N-((S)-4-(methylamino)-3,4-dioxo-1-((S)-2-oxopyrrolidin-3-yl)butan-2-yl)-3-azabicyclo[3.1.0]hexane-2-carboxamide], in test [4], the IC50 amounted to 0.014 ± 0.003 µM.
Take `CC1(C)C2CN(C(=O)C=Cc3ccccc3)C(C(=O)NC(CC3CCNC3=O)C(=O)C(=O)NCc3ccccc3)C21` (centres unmarked) [XDL2a]: the “Activity in SARS-CoV M^pro assay” value in test [5] was “completely inactive”.
`CC(C)(C)[C@H](NC(=O)C(F)(F)F)C(=O)N1C[C@H]2[C@@H]([C@H]1C(=O)N[C@H](C#N)C[C@@H]1CCNC1=O)C2(C)C` [nirmatrelvir, reference compound]: in test [1] (setting [6]), the “Inhibition rate against the 3C protease of CVB3” value worked out at 55%. Moreover, the “Inhibition rate against the 3C protease of EV-A71” value in test [2] (setting [6]) is reported as 33%.
